# Experimental data: PMC5242521 (PLoS ONE, 2017)
# Read-outs that look alike come from different tables or passages of the source.
# Tests used:
# OCT1 = molecular target: T1, OCT1 (Homo sapiens, UniProt O15245); assay: OCT1 activity: DAPI accumulation in HEK-OCT1 cells; conditions: for IC50: IC50 for OCT1 inhibition, HEK-OCT1 cells; for IC50 / effect on OCT1 activity: DAPI; for inhibition at 100 μM: human, pH 7.4; for effect on OCT1 activity: pyrethroid 100 μM
# T1 sequence (O15245 1-554): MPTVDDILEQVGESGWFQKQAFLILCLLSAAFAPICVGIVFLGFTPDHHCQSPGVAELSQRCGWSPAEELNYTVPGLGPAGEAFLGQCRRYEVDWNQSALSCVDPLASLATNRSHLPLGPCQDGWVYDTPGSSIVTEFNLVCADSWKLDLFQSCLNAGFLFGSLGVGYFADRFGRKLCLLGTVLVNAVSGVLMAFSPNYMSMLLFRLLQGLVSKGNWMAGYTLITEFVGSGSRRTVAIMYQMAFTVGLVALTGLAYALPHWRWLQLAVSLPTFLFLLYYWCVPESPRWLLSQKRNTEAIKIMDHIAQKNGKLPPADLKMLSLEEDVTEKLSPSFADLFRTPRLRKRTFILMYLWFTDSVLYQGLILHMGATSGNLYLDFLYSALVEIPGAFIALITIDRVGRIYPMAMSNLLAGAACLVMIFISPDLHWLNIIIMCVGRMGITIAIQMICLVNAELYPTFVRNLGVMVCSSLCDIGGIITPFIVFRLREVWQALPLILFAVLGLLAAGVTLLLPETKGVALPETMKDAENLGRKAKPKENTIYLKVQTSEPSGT
# Method: (§1) The effects of pyrethroids on activity of ABC and SLC transporters were determined through measuring cellular accumulation or retention of fluorescent or radiolabeled reference substrates for transporters, in the presence or absence of reference inhibitors, as previously described. The nature of cells and reference substrates and inhibitors used for transport assays are summarized in S3 Table.
# (§2) The nature of substrates and reference inhibitors and the incubation times with substrates, that varied according to the transporter, were selected in agreement with previous studies and are indicated in S3 Table. The total incubation volume with substrates was 200 μL/well. […] An aliquot of cell lysate (5 μL) was then taken for determining cellular protein content by the Bradford method.
# (§3) Intracellular concentrations of reference substrates were initially expressed as fluorescence arbitrary units (for fluorescent dye substrates) or as moles (for radiolabeled substrates) and normalized to cellular protein content, determined by the Bradford method. They were finally used for calculating percentage of transporter activity, according to the following equations [41, 45]: %ABCtransporter activity=([Substrateref inh]-[Substratepyrethroid])×100/([Substrateref inh]-[Substratecontrol]) (1) %SLC transporter activity=([Substratepyrethroid]-[Substratref inh])×100/([Substratecontrol]-[Substrateref inh]) (2) with [Substratepyrethroid] = cellular concentration of reference substrate in the presence of pyrethroid, [Substrateref inh] = cellular concentration of reference substrate in the presence of reference inhibitor and [Substratecontrol] = cellular concentration of reference substrate in control cells not exposed to pyrethroid or reference inhibitor.
# (§4) The initial tested concentration of pyrethroids was 100 μM. […] Such concentrations were calculated using GraphPad Prism software (GraphPad Software, La Jolla, CA), through nonlinear regression based on the four parameter logistic function using the following equations: […]
# OCT2 = molecular target: T2, OCT2 (Homo sapiens, UniProt O15244); assay: OCT2 activity: rhodamine 123 accumulation in HEK-OCT2 cells; conditions: for effect on OCT2 activity: pyrethroid 100 μM
# T2 sequence (O15244 1-555): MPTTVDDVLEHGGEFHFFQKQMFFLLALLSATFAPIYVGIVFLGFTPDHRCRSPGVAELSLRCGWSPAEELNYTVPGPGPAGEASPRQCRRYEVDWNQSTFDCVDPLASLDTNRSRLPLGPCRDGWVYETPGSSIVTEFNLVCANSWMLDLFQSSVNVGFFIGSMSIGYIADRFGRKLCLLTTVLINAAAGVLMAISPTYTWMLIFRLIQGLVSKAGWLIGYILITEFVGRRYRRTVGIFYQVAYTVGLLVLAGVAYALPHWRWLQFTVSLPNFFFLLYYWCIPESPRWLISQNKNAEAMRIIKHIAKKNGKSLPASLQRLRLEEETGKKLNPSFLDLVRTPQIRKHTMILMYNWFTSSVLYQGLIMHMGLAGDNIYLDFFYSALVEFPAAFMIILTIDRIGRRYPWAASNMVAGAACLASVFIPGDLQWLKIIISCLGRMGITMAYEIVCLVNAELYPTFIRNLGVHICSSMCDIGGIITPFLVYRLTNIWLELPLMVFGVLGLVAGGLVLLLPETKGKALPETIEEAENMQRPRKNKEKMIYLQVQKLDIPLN
# Method: as §1, §2, §3, §4
# OAT1 = molecular target: T3, OAT1 (Homo sapiens, UniProt Q4U2R8); assay: OAT1 activity: fluorescein accumulation in HEK-OAT1 cells; assay type: cell-based
# T3 construct: host or cells: HEK293
# T3 sequence (Q4U2R8 1-563): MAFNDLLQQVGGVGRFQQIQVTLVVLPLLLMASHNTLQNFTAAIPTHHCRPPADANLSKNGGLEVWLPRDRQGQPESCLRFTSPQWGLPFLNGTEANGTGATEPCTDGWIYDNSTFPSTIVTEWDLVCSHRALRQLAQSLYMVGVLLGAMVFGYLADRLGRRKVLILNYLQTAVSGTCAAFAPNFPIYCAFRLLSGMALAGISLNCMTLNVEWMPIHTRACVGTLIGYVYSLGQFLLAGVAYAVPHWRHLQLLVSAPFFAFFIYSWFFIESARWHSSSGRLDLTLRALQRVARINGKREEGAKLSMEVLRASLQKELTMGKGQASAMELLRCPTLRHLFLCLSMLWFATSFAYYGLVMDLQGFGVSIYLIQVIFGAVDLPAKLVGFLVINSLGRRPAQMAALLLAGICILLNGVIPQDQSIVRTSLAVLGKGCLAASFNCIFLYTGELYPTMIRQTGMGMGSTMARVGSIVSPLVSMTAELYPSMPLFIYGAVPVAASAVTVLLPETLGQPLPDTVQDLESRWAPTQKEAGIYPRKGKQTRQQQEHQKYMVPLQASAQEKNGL
# Method: The effects of pyrethroids on activity of ABC and SLC transporters were determined through measuring cellular accumulation or retention of fluorescent or radiolabeled reference substrates for transporters, in the presence or absence of reference inhibitors, as previously described [41].
# The total incubation volume with substrates was 200 μL/well. […] An aliquot of cell lysate (5 μL) was then taken for determining cellular protein content by the Bradford method [44].
# Intracellular concentrations of reference substrates were initially expressed as fluorescence arbitrary units (for fluorescent dye substrates) or as moles (for radiolabeled substrates) and normalized to cellular protein content, determined by the Bradford method [44]. They were finally used for calculating percentage of transporter activity, according to the following equations [41, 45]: %ABCtransporter activity=([Substrateref inh]-[Substratepyrethroid])×100/([Substrateref inh]-[Substratecontrol]) (1) %SLC transporter activity=([Substratepyrethroid]-[Substratref inh])×100/([Substratecontrol]-[Substrateref inh]) (2) with [Substratepyrethroid] = cellular concentration of reference substrate in the presence of pyrethroid, [Substrateref inh] = cellular concentration of reference substrate in the presence of reference inhibitor and [Substratecontrol] = cellular concentration of reference substrate in control cells not exposed to pyrethroid or reference inhibitor.
Structure (SMILES),IC50 (OCT1) [µM],inhibition at 100 μM (OCT1) [%],IC50 (OCT2) [µM],effect on OCT2 activity (OCT2),effect on OAT1 activity (OAT1),effect on OCT1 activity (OCT1),effect on OAT1 activity (OAT1; pyrethroid up to 100 μM),"effect on OAT1 activity (OAT1; pyrethroid up to 100 μM, listed as Allethrin)"
CC(C)=CC1C(C(=O)OCN2C(=O)C3=C(CCCC3)C2=O)C1(C)C (centres unmarked) [tetramethrin],4.9,73.8,11.2,markedly inhibit,No effect (up to 100 μM),–,–,–
C#CCC1=C(C)C(OC(=O)C2C(C=C(C)C)C2(C)C)CC1=O (centres unmarked) [prallethrin],–,–,–,inhibited,–,markedly inhibited,failed to alter,–
C#CCN1CC(=O)N(COC(=O)[C@@H]2C(C=C(C)C)C2(C)C)C1=O (mixture of isomers) [imiprothrin],–,–,–,inhibited,–,markedly inhibited,failed to alter,–
C=CCC1=C(C)C(OC(=O)C2C(C=C(C)C)C2(C)C)CC1=O (centres unmarked) [allethrin],2.6,87.9,42.6,markedly inhibit,–,–,failed to alter,No effect (up to 100 μM)
